# Patent US12441722B2, “Therapeutic agents and methods of treatment” (University of Florida Research Foundation, Incorporated, priority 2020, dated 2025)
# Test system: MOLT-4
# Assay: Cell viability assay (tetrazolium-based MTS) in MOLT4 cells
# Settings: Homo sapiens, MOLT-4, MOLT4 acute lymphoblastic leukemia cells, 48 h incubation
# Method: Cancer cells from acute lymphoblastic leukemia (MOLT4) were incubated with increasing concentrations of compounds of Examples 1-9 for 48 h. Cell viability was measured by tetrazolium-based MTS assay. 5×10^4 to 1×10^5 suspension cells or 3×10^3 to 5×10^3 adherent cells were seeded and treated in 96-well plates for 48 h. The EC50 values of individual agents were calculated with GraphPad Prism.
row,SMILES,EC50
1,"Cc1c(-c2ccc(N3CCc4cccc(C(=O)Nc5nc6ccccc6s5)c4C3)nc2C(=O)O)cnn1CC12CC3CC(CC(C3)C1)C2 [A1331852, reference compound]",< 10 nM
2,"Cc1c(-c2ccc(N3CCc4cccc(C(=O)Nc5nc6ccccc6s5)c4C3)nc2C(=O)NS(=O)(=O)CCCn2cc(COCCOCCNc3cccc4c3C(=O)N(C3CCC(=O)NC3=O)C4=O)nn2)cnn1CC12CC3CC(CC(C3)C1)C2 (centres unmarked) [degrader #1, 2-(5-(1-(adamantan-1-ylmethyl)-5-methyl-1H-pyrazol-4-yl)-6-(((3-(4-((2-(2-((2-(2,6-dioxopiperidin-3-yl)-1,3-dioxoisoindolin-4-yl)amino)ethoxy)ethoxy)methyl)-1H-1,2,3-triazol-1-yl)propyl)sulfonyl)carbamoyl)pyridin-2-yl)-N-(benzo[d]thiazol-2-yl)-1,2,3,4-tetrahydroisoquinoline-8-carboxamide]",10 to 100 nM
3,"Cc1c(-c2ccc(N3CCc4cccc(C(=O)Nc5nc6ccccc6s5)c4C3)nc2C(=O)NCCCCCCNc2cccc3c2C(=O)N(C2CCC(=O)NC2=O)C3=O)cnn1CC12CC3CC(CC(C3)C1)C2 (centres unmarked) [degrader #4, 2-(5-(1-(adamantan-1-ylmethyl)-5-methyl-1H-pyrazol-4-yl)-6-((6-((2-(2,6-dioxopiperidin-3-yl)-1,3-dioxoisoindolin-4-yl)amino)hexyl)carbamoyl)pyridin-2-yl)-N-(benzo[d]thiazol-2-yl)-1,2,3,4-tetrahydroisoquinoline-8-carboxamide]",100 to 1000 nM
4,"Cc1c(-c2ccc(N3CCc4cccc(C(=O)Nc5nc6ccccc6s5)c4C3)nc2C(=O)NCCOCCOCCNc2cccc3c2C(=O)N(C2CCC(=O)NC2=O)C3=O)cnn1CC12CC3CC(CC(C3)C1)C2 (centres unmarked) [degrader #7, 2-(5-(1-(adamantan-1-ylmethyl)-5-methyl-1H-pyrazol-4-yl)-6-((2-(2-(2-((2-(2,6-dioxopiperidin-3-yl)-1,3-dioxoisoindolin-4-yl)amino)ethoxy)ethoxy)ethyl)carbamoyl)pyridin-2-yl)-N-(benzo[d]thiazol-2-yl)-1,2,3,4-tetrahydroisoquinoline-8-carboxamide]",10 to 100 nM
5,"Cc1ncsc1-c1ccc([C@H](C)NC(=O)[C@@H]2C[C@@H](O)CN2C(=O)[C@@H](NC(=O)CCCS(=O)(=O)NC(=O)c2nc(N3CCc4cccc(C(=O)Nc5nc6ccccc6s5)c4C3)ccc2-c2cnn(CC34CC5CC(CC(C5)C3)C4)c2C)C(C)(C)C)cc1 [degrader #9, 2-(5-(1-(adamantan-1-ylmethyl)-5-methyl-1H-pyrazol-4-yl)-6-(((4-(((S)-1-((2S,4R)-4-hydroxy-2-(((S)-1-(4-(4-methylthiazol-5-yl)phenyl)ethyl)carbamoyl)pyrrolidin-1-yl)-3,3-dimethyl-1-oxobutan-2-yl)amino)-4-oxobutyl)sulfonyl)carbamoyl)pyridin-2-yl)-N-(benzo[d]thiazol-2-yl)-1,2,3,4-tetrahydroisoquinoline-8-carboxamide]",< 10 nM
6,"Cc1ncsc1-c1ccc([C@H](C)NC(=O)[C@@H]2C[C@@H](O)CN2C(=O)[C@@H](NC(=O)CCCCS(=O)(=O)NC(=O)c2nc(N3CCc4cccc(C(=O)Nc5nc6ccccc6s5)c4C3)ccc2-c2cnn(CC34CC5CC(CC(C5)C3)C4)c2C)C(C)(C)C)cc1 [degrader #10, 2-(5-(1-(adamantan-1-ylmethyl)-5-methyl-1H-pyrazol-4-yl)-6-(((5-(((S)-1-((2S,4R)-4-hydroxy-2-(((S)-1-(4-(4-methylthiazol-5-yl)phenyl)ethyl)carbamoyl)pyrrolidin-1-yl)-3,3-dimethyl-1-oxobutan-2-yl)amino)-5-oxopentyl)sulfonyl)carbamoyl)pyridin-2-yl)-N-(benzo[d]thiazol-2-yl)-1,2,3,4-tetrahydroisoquinoline-8-carboxamide]",< 10 nM
7,"Cc1ncsc1-c1ccc([C@H](C)NC(=O)[C@@H]2C[C@@H](O)CN2C(=O)[C@@H](NC(=O)CCCCCS(=O)(=O)NC(=O)c2nc(N3CCc4cccc(C(=O)Nc5nc6ccccc6s5)c4C3)ccc2-c2cnn(CC34CC5CC(CC(C5)C3)C4)c2C)C(C)(C)C)cc1 [degrader #11, 2-(5-(1-(adamantan-1-ylmethyl)-5-methyl-1H-pyrazol-4-yl)-6-(((6-(((S)-1-((2S,4R)-4-hydroxy-2-(((S)-1-(4-(4-methylthiazol-5-yl)phenyl)ethyl)carbamoyl)pyrrolidin-1-yl)-3,3-dimethyl-1-oxobutan-2-yl)amino)-6-oxohexyl)sulfonyl)carbamoyl)pyridin-2-yl)-N-(benzo[d]thiazol-2-yl)-1,2,3,4-tetrahydroisoquinoline-8-carboxamide]",< 10 nM
8,"Cc1ncsc1-c1ccc([C@H](C)NC(=O)[C@@H]2C[C@@H](O)CN2C(=O)[C@@H](NC(=O)CCCCCCCCS(=O)(=O)NC(=O)c2nc(N3CCc4cccc(C(=O)Nc5nc6ccccc6s5)c4C3)ccc2-c2cnn(CC34CC5CC(CC(C5)C3)C4)c2C)C(C)(C)C)cc1 [degrader #14, 2-(5-(1-(adamantan-1-ylmethyl)-5-methyl-1H-pyrazol-4-yl)-6-(((9-(((S)-1-((2S,4R)-4-hydroxy-2-(((S)-1-(4-(4-methylthiazol-5-yl)phenyl)ethyl)carbamoyl)pyrrolidin-1-yl)-3,3-dimethyl-1-oxobutan-2-yl)amino)-9-oxononyl)sulfonyl)carbamoyl)pyridin-2-yl)-N-(benzo[d]thiazol-2-yl)-1,2,3,4-tetrahydroisoquinoline-8-carboxamide]",< 10 nM

# The remaining lines, values ahead:
row,EC50,SMILES
1,10 to 100 nM,"Cc1c(-c2ccc(N3CCc4cccc(C(=O)Nc5nc6ccccc6s5)c4C3)nc2C(=O)NS(=O)(=O)CCCn2cc(COCCOCCNc3cccc4c3C(=O)N(C3CCC(=O)NC3=O)C4=O)nn2)cc(C#N)n1CC12CC3CC(CC(C3)C1)C2 (centres unmarked) [degrader #2, 2-(5-(1-(adamantan-1-ylmethyl)-5-cyano-2-methyl-1H-pyrrol-3-yl)-6-(((3-(4-((2-(2-((2-(2,6-dioxopiperidin-3-yl)-1,3-dioxoisoindolin-4-yl)amino)ethoxy)ethoxy)methyl)-1H-1,2,3-triazol-1-yl)propyl)sulfonyl)carbamoyl)pyridin-2-yl)-N-(benzo[d]thiazol-2-yl)-1,2,3,4-tetrahydroisoquinoline-8-carboxamide]"
2,100 to 1000 nM,"Cc1c(-c2ccc(N3CCc4cccc(C(=O)Nc5nc6ccccc6s5)c4C3)nc2C(=O)NCCCCNc2cccc3c2C(=O)N(C2CCC(=O)NC2=O)C3=O)cnn1CC12CC3CC(CC(C3)C1)C2 (centres unmarked) [degrader #3, 2-(5-(1-(adamantan-1-ylmethyl)-5-methyl-1H-pyrazol-4-yl)-6-((4-((2-(2,6-dioxopiperidin-3-yl)-1,3-dioxoisoindolin-4-yl)amino)butyl)carbamoyl)pyridin-2-yl)-N-(benzo[d]thiazol-2-yl)-1,2,3,4-tetrahydroisoquinoline-8-carboxamide]"
3,100 to 1000 nM,"Cc1c(-c2ccc(N3CCc4cccc(C(=O)Nc5nc6ccccc6s5)c4C3)nc2C(=O)NCCCCCCCCNc2cccc3c2C(=O)N(C2CCC(=O)NC2=O)C3=O)cnn1CC12CC3CC(CC(C3)C1)C2 (centres unmarked) [degrader #5, 2-(5-(1-(adamantan-1-ylmethyl)-5-methyl-1H-pyrazol-4-yl)-6-((8-((2-(2,6-dioxopiperidin-3-yl)-1,3-dioxoisoindolin-4-yl)amino)octyl)carbamoyl)pyridin-2-yl)-N-(benzo[d]thiazol-2-yl)-1,2,3,4-tetrahydroisoquinoline-8-carboxamide]"
4,10 to 100 nM,"Cc1c(-c2ccc(N3CCc4cccc(C(=O)Nc5nc6ccccc6s5)c4C3)nc2C(=O)NCCOCCNc2cccc3c2C(=O)N(C2CCC(=O)NC2=O)C3=O)cnn1CC12CC3CC(CC(C3)C1)C2 (centres unmarked) [degrader #6, 2-(5-(1-(adamantan-1-ylmethyl)-5-methyl-1H-pyrazol-4-yl)-6-((2-(2-((2-(2,6-dioxopiperidin-3-yl)-1,3-dioxoisoindolin-4-yl)amino)ethoxy)ethyl)carbamoyl)pyridin-2-yl)-N-(benzo[d]thiazol-2-yl)-1,2,3,4-tetrahydroisoquinoline-8-carboxamide]"
5,< 10 nM,"Cc1ncsc1-c1ccc([C@H](C)NC(=O)[C@@H]2C[C@@H](O)CN2C(=O)[C@@H](NC(=O)CCCCCCCS(=O)(=O)NC(=O)c2nc(N3CCc4cccc(C(=O)Nc5nc6ccccc6s5)c4C3)ccc2-c2cnn(CC34CC5CC(CC(C5)C3)C4)c2C)C(C)(C)C)cc1 [degrader #13, 2-(5-(1-(adamantan-1-ylmethyl)-5-methyl-1H-pyrazol-4-yl)-6-(((8-(((S)-1-((2S,4R)-4-hydroxy-2-(((S)-1-(4-(4-methylthiazol-5-yl)phenyl)ethyl)carbamoyl)pyrrolidin-1-yl)-3,3-dimethyl-1-oxobutan-2-yl)amino)-8-oxooctyl)sulfonyl)carbamoyl)pyridin-2-yl)-N-(benzo[d]thiazol-2-yl)-1,2,3,4-tetrahydroisoquinoline-8-carboxamide]"

# Same assay, conditions: MOLT4 acute lymphoblastic leukemia cells, 48 h incubation
row,EC50,SMILES
1,< 10 nM,"Cc1ncsc1-c1ccc([C@H](C)NC(=O)[C@@H]2C[C@@H](O)CN2C(=O)[C@@H](NC(=O)CCCCCCS(=O)(=O)NC(=O)c2nc(N3CCc4cccc(C(=O)Nc5nc6ccccc6s5)c4C3)ccc2-c2cnn(CC34CC5CC(CC(C5)C3)C4)c2C)C(C)(C)C)cc1 [degrader #12, 2-(5-(1-(adamantan-1-ylmethyl)-5-methvl-1H-pyrazol-4-yl)-6-(((7-(((S)-1-((2S,4R)-4-hydroxy-2-(((S)-1-(4-(4-methylthiazol-5-yl)phenyl)ethyl)carbamoyl)pyrrolidin-1-yl)-3,3-dimethyl-1-oxobutan-2-yl)amino)-7-oxoheptyl)sulfonyl)carbamol)pyridin-2-yl)-N-(benzo[d]thiazol-2-yl)-1,2,3,4-tetrahydroisoquinoline-8-carboxamide]"
